Source: US20080177115A1, “Isotopically labeled alpha-keto acids and esters” (Spectra Gases, Inc., priority 2006, published 2008)

Columns and labels:
Assay type in all cases: physicochemical
[1] = Concentration studies: stability of pyruvic acid solutions in water at higher concentrations
Protocol: Each of these commercial solutions were subjected to light for 6-weeks at temperatures ranging from about 22° C. to about 26° C. At each of the concentrations listed below, it was discovered that the pyruvic acid solutions were stable.

[2] = Titration of aqueous sample with sodium hydroxide, composition by HPLC (dimer formation); conditions: pH of about 6.2 after titration with sodium hydroxide
Text: The molarity of sample 4 was confirmed to be 0.025M by titrating the aqueous sample with sodium hydroxide. […] It was also discovered that at pHs greater than 5.8, such as at a pH of about 6.2, some of the pyruvic acid was present in the form of a dimerized sodium salt. […] As such, it was discovered that to minimize dimmer formation, it may be necessary to control the pH of [1-^13C]pyruvate solutions, and in particular, any aqueous solution should be maintained at a pH of about 6.5 or less, more preferably 6.0 or less, and even more preferably 5.8 or less.

[3] = Shelf storage stability of [1-^13C]pyruvic acid in water, compared by ^1H and ^13C NMR spectra; conditions: 0.025M in water; for Shelf stability (NMR spectra unchanged): all conditions of Table 1
Protocol: Samples of isotopically labeled [1-^13C]pyruvic acid, having Formula VI and synthesized as discussed immediately below, were subjected to various conditions as depicted in Table 1, in order to establish the compound's shelf storage stability.
The resulting [1-^13C]pyruvic acid was tested as follows in Table 1:
^1H and ^13C NMR spectra of the distilled [1-^13C]pyruvic acid in water (0.025M) were acquired at the onset of the study and prior to exposing the samples to the various conditions specified in Table 1. ^1H and ^13C NMR spectra were again acquired for each of the samples after being exposed to the aforementioned conditions on a weekly basis for 12-weeks. The spectra acquired after exposure were compared visually and appeared to remain unchanged as compared with the spectra acquired prior to exposure, i.e. the spectra were as expected for [1-^13C]pyruvic acid in water. As such, it was concluded that each of the samples were shelf stable. Similarly, ^1H and ^13C NMR spectra acquired after 17-weeks of exposure remained unchanged as compared with the spectra acquired prior to exposure.

[4] = Sample 3: Room temperature (about 22° C. to about 26° C.), Dark
[5] = Sample 4: Room temperature (about 22° C. to about 26° C.), Light

Structure (SMILES): CC(=O)C(=O)O [Pyruvic acid, 2-oxopropanoic acid, reference compound]
- Stability of solutions in water ([1]; each of the concentrations of Table 2, light, 6-weeks, about 22° C. to about 26° C.): stable

Structure (SMILES): CC(=O)[13C](=O)O [[1-^13C]pyruvic acid]
- Stability of solutions in water at higher concentrations (believed) ([1]; at least the concentrations of Table 2 in water, inferred from commercial pyruvic acid): stable
- Content of dimerized [1-^13C]pyruvate salt by HPLC [2]: 2-4%
- Content of sodium [1-^13C]pyruvate by HPLC [2]: 89%
- Share of the pyruvic acid accounted for by dimerized salt [2]: 4-6%
- Shelf stability, 12 weeks ([3]; Sample 1: −10° C., Dark): Stable
- Shelf stability, 17 weeks ([3]; Sample 1: −10° C., Dark): Stable
- Shelf stability, 12 weeks ([3]; Sample 2: 4° C., Dark): Stable
- Shelf stability, 17 weeks ([3]; Sample 2: 4° C., Dark): Stable
- Shelf stability, 12 weeks [3, 4]: Stable
- Shelf stability, 17 weeks [3, 4]: Stable
- Shelf stability, 12 weeks [3, 5]: Stable
- Shelf stability, 17 weeks [3, 5]: Stable
- Shelf stability (NMR spectra unchanged) ([3]; 17-weeks): shelf stable
- Shelf stability (NMR spectra unchanged) ([3]; weekly for 12-weeks): shelf stable
